From patent US10766888B1, “HMOX1 inducers” (Mitobridge Inc., priority 2019, dated 2020)
Converted amounts (≈) assume the structure as drawn.

System: Human Heme Oxygenase-1 (HMOX-1)
Test: ELISA assay to measure human heme oxygenase-1 (HMOX-1) in HepG2 lysate
Format: cell-based
Settings: fold change of human HMOX1 protein level relative to DMSO control, HepG2
Method: Example 143. ELISA Assay to Measure Human Heme Oxygenase-1 (HMOX-1) in HepG2 lysate
Reagents and Technical Notes:
ELISA capture antibody, standard HO-1, detection antibody and streptavidin HRP were supplied in the DuoSet IC Human total HO-1 ELISA from R&D systems (DYC3776-2). The substrate cocktail was KPL LumiGLO reserve Chemiluminescent Substrate (54-71-00). PBS was Corning Cellgro Cell Culture (21-040-CV). 10×PBS+0.05% tween20 (PBST) was from KPL.
All incubations of the plate were at room temperature (20° C.) in a closed drawer.
The ELISA plate was processed manually. All loadings were with a multichannel pipet. Plates were emptied by shaking into the sink and tapping onto paper towels to remove any remaining reagent. Plate washing was accomplished by loading all wells with PBS+0.05% tween20 (PBST) using a squirt bottle, shaking the PBST out and tapping the plate onto paper towels.
Preparation of the ELISA Plate:
• 1. anti-HO-1 capture antibody was 1440 μg/ml after reconstitution in PBS. This antibody was diluted to 8 μg/ml in PBS and 50 μl per well was added to a 384 well greiner “lumitrac 200” plate. Incubated overnight. • 2. The plate was emptied and 100 μl PBS+1% BSA added to all wells. Incubated 90 minutes at room temperature. Preparation of HepG2 Lysate: • 1. Cells were cultured in a 96-well tissue culture plate washed with PBS and then the plate frozen at −70° C. overnight. Plates were allowed to warm to ice temperature in an ice bucket. 20 μl of PBS, 0.5% Triton X100, 1 mM EDTA with 1×HALT™ protease inhibitors was added to each well and the plates incubated on ice for 1 hour. • 2. The lysates were frozen at −20° C. overnight. Measurement of HMOX1 (“HO-1”) • 1. In a polypropylene 384 well plate, human HO-1 (after reconstitution in PBS+0.5% Triton+1 mM EDTA) was serially diluted from 20 ng/ml 2-fold in PBS+0.5% triton-X100, 1 mM EDTA to make a 12-point standard curve including a zero point. • 2. In a polypropylene 96 well plate, HepG2 lysate was diluted 1 to 20 in Diluent #4 from DUOSET kit in which the assay standard is also diluted. • 3. The PBS+1% BSA was emptied from the ELISA plate and 30 μl of all samples and standards were added (duplicates recommended). The plate was incubated 90 minutes. • 4. Emptied plate and washed 4 times with PBST. • 5. Diluted HO-1 detection antibody to 200 ng/ml in PBS+1% BSA and added 30 μl to all wells. Incubated 90 minutes. • 6. Emptied plate and washed 4 times with PBST. • 7. Added 30 μl streptavidin HRP at 1/200 in PBS+1% BSA (stock streptavidin concentration not specified) to all wells. Incubated 30 minutes. • 8. Emptied plate and washed 4 times with PBST. • 9. Diluted Lumiglo reserve reagent two parts buffer to one part lumiglo substrate. Added 30 μl to all wells. Incubated 5 minutes. • 10. Measured chemiluminescence on spectramax M5 using 150 ms integration.
Table 1 below lists EC50 and fold changes of human HMOX1 protein levels relative to DMSO control upon treatment with representative compounds.

Maximum Fold induction [fold] | Structure (SMILES)
29 | Cn1c(Nc2nc3ccc(C(F)(F)F)cc3o2)nc2cc(C(=O)NCCOCC(C)(C)O)ccc21 [Example 42, N-(2-(2-hydroxy-2-methylpropoxy)ethyl)-1-methyl-2-((6-(trifluoromethyl)benzo[d]oxazol-2-yl)amino)-1H-benzo[d]imidazole-5-carboxamide]
15 | COCCOc1ccc2nc(Nc3nc4cc(C(=O)O)ccc4n3C)oc2c1 [Example 55, 2-((6-(2-methoxyethoxy)benzo[d]oxazol-2-yl)amino)-1-methyl-1H-benzo[d]imidazole-5-carboxylic acid]

Same assay, conditions: human HMOX1 protein level in HepG2 lysate; * = average of 2 or more EC50 determinations; NA = Not Active; read-out: EC50

Structure (SMILES) | EC50 [µM]
Cn1c(Nc2nc3ccc(C(F)(F)F)cc3o2)nc2cc(C(=O)NCCOCC(C)(C)O)ccc21 [Example 42, N-(2-(2-hydroxy-2-methylpropoxy)ethyl)-1-methyl-2-((6-(trifluoromethyl)benzo[d]oxazol-2-yl)amino)-1H-benzo[d]imidazole-5-carboxamide] | 2.3
COCCNC(=O)c1ccc2c(c1)nc(Nc1nc3cc(OC(F)(F)F)ccc3[nH]1)n2C1CCOCC1 [Example 81, N-(2-methoxyethyl)-1-(tetrahydro-2H-pyran-4-yl)-2-((5-(trifluoromethoxy)-1H-benzo[d]imidazol-2-yl)amino)-1H-benzo[d]imidazole-5-carboxamide] | 2.3
CC(C)c1ccc2nc(Nc3nc4cc(C(=O)O)ccc4n3C)oc2c1 [Example 59, 2-((6-isopropylbenzo[d]oxazol-2-yl)amino)-1-methyl-1H-benzo[d]imidazole-5-carboxylic acid] | 3.3
COCCNC(=O)c1ccc2c(c1)nc(Nc1nc3cc(OC(F)(F)F)ccc3[nH]1)n2CCOC [Example 76, N,1-bis(2-methoxyethyl)-2-((5-(trifluoromethoxy)-1H-benzo[d]imidazol-2-yl)amino)-1H-benzo[d]imidazole-5-carboxamide] | 2.7
COCCNC(=O)c1ccc2c(c1)nc(Nc1nc3ccc(C4CC4)cc3o1)n2C [Example 116, 2-((6-cyclopropylbenzo[d]oxazol-2-yl)amino)-N-(2-methoxyethyl)-1-methyl-1H-benzo[d]imidazole-5-carboxamide] | 3
CN1CCC(n2c(Nc3nc4ccc(OC(F)(F)F)cc4s3)nc3cc(C(=O)O)ccc32)C1 (stereo not shown) [Example 4d, 1-(1-methylpyrrolidin-3-yl)-2-((6-(trifluoromethoxy)benzo[d]thiazol-2-yl)amino)-1H-benzo[d]imidazole-5-carboxylic acid] | 4.7
COCCNC(=O)c1ccc2c(c1)nc(Nc1nc3ccc(OC(F)(F)F)cc3s1)n2C1CCN(C)CC1 [Example 3e, N-(2-methoxyethyl)-1-(1-methylpiperidin-4-yl)-2-((6-(trifluoromethoxy)benzo[d]thiazol-2-yl)amino)-1H-benzo[d]imidazole-5-carboxamide] | 1.1
COCCNC(=O)c1ccc2c(c1)nc(Nc1nc3cc(Cl)ccc3[nH]1)n2C [Example 83, 2-((5-chloro-1H-benzo[d]imidazol-2-yl)amino)-N-(2-methoxyethyl)-1-methyl-1H-benzo[d]imidazole-5-carboxamide] | 1.8
COCCNC(=O)c1ccc2c(c1)nc(Nc1nc3c(s1)COCC3)n2C [Example 11, 2-((6,7-dihydro-4H-pyrano[4,3-d]thiazol-2-yl)amino)-N-(2-methoxyethyl)-1-methyl-1H-benzo[d]imidazole-5-carboxamide] | 6.6

Results, then the compound that gave them:

EC50 [µM] | Structure (SMILES)
1.3 | Cn1c(Nc2nc3ccc(C(F)(F)F)cc3o2)nc2cc(C(=O)NCCN3CCCC3)ccc21 [Example 36, 1-methyl-N-(2-(pyrrolidin-1-yl)ethyl)-2-((6-(trifluoromethyl)benzo[d]oxazol-2-yl)amino)-1H-benzo[d]imidazole-5-carboxamide]
5.4 | CCn1c(Nc2nc3ccc(OC(F)(F)F)cc3o2)nc2cc(C(=O)O)ccc21 [Example 84, 1-ethyl-2-((6-(trifluoromethoxy)benzo[d]oxazol-2-yl)amino)-1H-benzo[d]imidazole-5-carboxylic acid]
4.5 | COCCOc1ccc2nc(Nc3nc4cc(C(=O)O)ccc4n3C)oc2c1 [Example 55, 2-((6-(2-methoxyethoxy)benzo[d]oxazol-2-yl)amino)-1-methyl-1H-benzo[d]imidazole-5-carboxylic acid]
6.8 | O=C(O)c1ccc2c(c1)nc(Nc1nc3ccc(OC(F)(F)F)cc3o1)n2CC1CCOC1 (stereo not shown) [Example 87, 1-((tetrahydrofuran-3-yl)methyl)-2-((6-(trifluoromethoxy)-benzo[d]oxazol-2-yl)amino)-1H-benzo[d]imidazole-5-carboxylic acid]
4.1 | COCCn1c(Nc2nc3ccc(OC(F)(F)F)cc3o2)nc2cc(C(=O)O)ccc21 [Example 77, 1-(2-methoxyethyl)-2-((6-(trifluoromethoxy)benzo[d]oxazol-2-yl)amino)-1H-benzo[d]imidazole-5-carboxylic acid]
4.8 | COCCNC(=O)c1ccc2c(c1)nc(Nc1nc3ccc(OC(F)(F)F)cc3o1)n2CCS(C)(=O)=O [Example 90, N-(2-methoxyethyl)-1-(2-(methylsulfonyl)ethyl)-2-((6-(trifluoromethoxy)benzo[d]oxazol-2-yl)amino)-1H-benzo[d]imidazole-5-carboxamide]
1.3 | CCn1c(Nc2nc3ccc(OC(F)(F)F)cc3o2)nc2cc(C(=O)NCCOC)ccc21 [Example 85, 1-ethyl-N-(2-methoxyethyl)-2-((6-(trifluoromethoxy)benzo[d]oxazol-2-yl)amino)-1H-benzo[d]imidazole-5-carboxamide]

System: not listed separately
Test: Kinetic solubility
Format: physicochemical
Settings: Dulbecco's phosphate buffer saline (DPBS), aqueous buffer, kinetic from dmso stock, DPBS pH 7.4, 25° C., 200 μM test compound
Method: Example 144. Kinetic Solubility
10 μL of 10 mM DMSO stock solution were aliquotted to 490 μL of DMSO solution and separately 490 μL of Dulbecco's phosphate buffer saline, DPBS, pH 7.4 solution in 1.2 mL 96-well plates in duplicate. Final concentration was 200 μM of the test compound. Samples were incubated at 25° C. with shaking at 200 rpm for 16 h. Samples were centrifuged at 3500 rpm for 20 min at 25° C., and supernatant was submitted for HPLC analysis.
Kinetic solubility was measured using the following equation: […]

Structure (SMILES) | solubility at 16 h [µM]
Cn1c(Nc2nc3ccc(C(F)(F)F)cc3o2)nc2cc(C(=O)NCCOCC(C)(C)O)ccc21 [Example 42, N-(2-(2-hydroxy-2-methylpropoxy)ethyl)-1-methyl-2-((6-(trifluoromethyl)benzo[d]oxazol-2-yl)amino)-1H-benzo[d]imidazole-5-carboxamide] | 3.6 (≈ 1.77 µg/mL)
Cn1c(Nc2nc3ccc(C(F)(F)F)nc3o2)nc2cc(C(=O)NCCO)ccc21 [Example 113, N-(2-hydroxyethyl)-1-methyl-2-((5-(trifluoromethyl)oxazolo[5,4-b]pyridin-2-yl)amino)-1H-benzo[d]imidazole-5-carboxamide] | 9.1 (≈ 3.83 µg/mL)
Cn1c(Nc2nc3ccc(C(F)(F)F)cc3o2)nc2cc(C(=O)NCCN3CCCCC3)ccc21 [Example 37, 1-methyl-N-(2-(piperidin-1-yl)ethyl)-2-((6-(trifluoromethyl)benzo[d]oxazol-2-yl)amino)-1H-benzo[d]imidazole-5-carboxamide] | < 2
Cn1c(Nc2nc3ccccc3o2)nc2cc(C(=O)NCCOCC(=O)O)ccc21 [Example 29, 2-(2-(2-(benzo[d]oxazol-2-ylamino)-1-methyl-1H-benzo[d]imidazole-5-carboxamido)ethoxy)acetic acid] | 19.3 (≈ 7.9 µg/mL)
Cn1c(Nc2nc3ccccc3o2)nc2cc(C(=O)NCC(O)CO)ccc21 (stereo not shown) [Example 24, 2-(benzo[d]oxazol-2-ylamino)-N-(2,3-dihydroxypropyl)-1-methyl-1H-benzo[d]imidazole-5-carboxamide] | 12.4 (≈ 4.73 µg/mL)
Cn1c(Nc2nc3ccccc3o2)nc2cc(C(=O)NCCOCC(C)(C)O)ccc21 [Example 27, 2-(benzo[d]oxazol-2-ylamino)-N-(2-(2-hydroxy-2-methylpropoxy)ethyl)-1-methyl-1H-benzo[d]imidazole-5-carboxamide] | 10.6 (≈ 4.49 µg/mL)
Cn1c(Nc2nc3nccnc3s2)nc2cc(C(=O)NCCOCCO)ccc21 [Example 114, N-(2-(2-hydroxyethoxy)ethyl)-1-methyl-2-(thiazolo[4,5-b]pyrazin-2-ylamino)-1H-benzo[d]imidazole-5-carboxamide] | 12.2 (≈ 5.04 µg/mL)
CC(=O)N1CCc2nc(Nc3nc4cc(C(=O)NCCOCCO)ccc4n3C)sc2C1 [Example 10, 2-((5-acetyl-4,5,6,7-tetrahydrothiazolo[5,4-c]pyridin-2-yl)amino)-N-(2-(2-hydroxyethoxy)ethyl)-1-methyl-1H-benzo[d]imidazole-5-carboxamide] | 8.6 (≈ 3.94 µg/mL)

Results, then the compound that gave them:

solubility at 16 h [µM] | Structure (SMILES)
2.8 (≈ 1.32 µg/mL) | Cn1c(Nc2nc3ccc(C(F)(F)F)cc3o2)nc2cc(C(=O)NCCN3CCCC3)ccc21 [Example 36, 1-methyl-N-(2-(pyrrolidin-1-yl)ethyl)-2-((6-(trifluoromethyl)benzo[d]oxazol-2-yl)amino)-1H-benzo[d]imidazole-5-carboxamide]
4 (≈ 1.89 µg/mL) | Cn1cc(NC(=O)c2ccc3c(c2)nc(Nc2nc4ccc(OC(F)(F)F)cc4o2)n3C)cn1 [Example 50, 1-methyl-N-(1-methyl-1H-pyrazol-4-yl)-2-((6-(trifluoromethoxy)benzo[d]oxazol-2-yl)amino)-1H-benzo[d]imidazole-5-carboxamide]
